Reference: patent US8258311B2, “Human protein tyrosine phosphatase inhibitors and methods of use” (Aerpio Therapeutics Inc., priority 2006, dated 2012)

What was measured:
PTP1B = biological target: T1, PTP1B (Homo sapiens, UniProt P18031); assay: PTP1B inhibition (IC50); assay type: biochemical
T1 sequence (P18031 1-435): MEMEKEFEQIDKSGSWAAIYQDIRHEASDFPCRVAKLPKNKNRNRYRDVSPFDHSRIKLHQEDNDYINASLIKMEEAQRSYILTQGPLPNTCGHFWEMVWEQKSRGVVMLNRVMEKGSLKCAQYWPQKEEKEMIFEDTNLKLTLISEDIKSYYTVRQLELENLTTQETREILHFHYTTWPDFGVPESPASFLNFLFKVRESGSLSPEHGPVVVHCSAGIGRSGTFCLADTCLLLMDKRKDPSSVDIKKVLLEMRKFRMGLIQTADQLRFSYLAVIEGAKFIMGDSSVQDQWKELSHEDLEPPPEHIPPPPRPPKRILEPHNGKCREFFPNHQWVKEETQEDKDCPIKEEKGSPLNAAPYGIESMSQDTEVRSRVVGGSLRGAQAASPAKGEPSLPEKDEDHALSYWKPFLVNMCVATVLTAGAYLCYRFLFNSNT

HPTPβ = HPTPβ (Homo sapiens, UniProt P23467); assay: HPTPβ inhibition (IC50); assay type: biochemical
Chain of HPTPβ (P23467 23-1997): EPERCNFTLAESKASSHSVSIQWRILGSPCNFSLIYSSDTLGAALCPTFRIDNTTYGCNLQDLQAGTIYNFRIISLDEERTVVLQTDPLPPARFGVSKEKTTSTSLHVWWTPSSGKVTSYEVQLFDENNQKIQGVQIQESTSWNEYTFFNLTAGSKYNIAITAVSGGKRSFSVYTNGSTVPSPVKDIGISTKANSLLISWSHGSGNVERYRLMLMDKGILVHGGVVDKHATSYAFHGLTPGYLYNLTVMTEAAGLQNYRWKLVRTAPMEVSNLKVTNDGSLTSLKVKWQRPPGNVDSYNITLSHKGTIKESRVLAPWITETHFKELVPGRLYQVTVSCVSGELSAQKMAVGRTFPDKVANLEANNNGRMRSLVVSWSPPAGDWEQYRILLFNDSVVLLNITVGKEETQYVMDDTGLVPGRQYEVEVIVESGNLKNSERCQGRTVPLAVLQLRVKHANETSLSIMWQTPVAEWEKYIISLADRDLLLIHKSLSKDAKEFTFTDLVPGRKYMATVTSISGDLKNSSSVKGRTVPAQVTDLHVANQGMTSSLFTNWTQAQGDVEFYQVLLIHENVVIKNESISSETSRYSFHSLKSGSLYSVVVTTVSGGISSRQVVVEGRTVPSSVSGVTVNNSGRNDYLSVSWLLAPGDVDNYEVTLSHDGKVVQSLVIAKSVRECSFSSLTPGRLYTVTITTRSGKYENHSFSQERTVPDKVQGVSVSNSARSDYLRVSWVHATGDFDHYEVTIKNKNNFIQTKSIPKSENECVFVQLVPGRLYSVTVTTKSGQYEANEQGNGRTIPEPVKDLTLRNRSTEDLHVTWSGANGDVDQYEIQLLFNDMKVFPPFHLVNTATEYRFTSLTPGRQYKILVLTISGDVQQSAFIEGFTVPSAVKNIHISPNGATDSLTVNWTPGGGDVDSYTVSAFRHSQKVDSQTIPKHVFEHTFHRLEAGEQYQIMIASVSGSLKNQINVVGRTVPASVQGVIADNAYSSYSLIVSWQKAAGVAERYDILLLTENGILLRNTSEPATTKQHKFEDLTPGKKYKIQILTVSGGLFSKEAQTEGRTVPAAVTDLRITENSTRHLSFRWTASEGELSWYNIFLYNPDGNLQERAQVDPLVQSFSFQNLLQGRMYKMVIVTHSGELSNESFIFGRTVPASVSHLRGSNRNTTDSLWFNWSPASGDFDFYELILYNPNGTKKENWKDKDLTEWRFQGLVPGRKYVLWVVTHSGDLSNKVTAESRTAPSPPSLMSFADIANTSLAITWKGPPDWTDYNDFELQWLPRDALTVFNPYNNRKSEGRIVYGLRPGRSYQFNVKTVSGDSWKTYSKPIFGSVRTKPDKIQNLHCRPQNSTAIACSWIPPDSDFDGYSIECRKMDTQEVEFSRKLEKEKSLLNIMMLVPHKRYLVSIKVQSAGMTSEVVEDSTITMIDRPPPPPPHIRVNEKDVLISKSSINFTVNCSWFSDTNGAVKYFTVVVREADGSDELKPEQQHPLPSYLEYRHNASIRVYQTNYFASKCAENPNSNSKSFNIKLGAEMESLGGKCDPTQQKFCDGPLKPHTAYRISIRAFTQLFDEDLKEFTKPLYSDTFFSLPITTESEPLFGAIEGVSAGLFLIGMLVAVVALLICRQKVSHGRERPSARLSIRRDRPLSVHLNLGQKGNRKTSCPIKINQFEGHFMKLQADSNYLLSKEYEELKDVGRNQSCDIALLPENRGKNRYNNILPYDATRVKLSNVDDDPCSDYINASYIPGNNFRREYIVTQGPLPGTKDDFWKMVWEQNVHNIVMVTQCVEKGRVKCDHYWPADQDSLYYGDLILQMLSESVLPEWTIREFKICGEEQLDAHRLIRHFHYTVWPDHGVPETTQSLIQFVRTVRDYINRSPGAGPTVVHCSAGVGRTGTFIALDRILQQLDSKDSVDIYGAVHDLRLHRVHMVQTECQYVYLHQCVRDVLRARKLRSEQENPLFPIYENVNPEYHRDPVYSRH

Row | Compound | IC50 (PTP1B) | IC50 (HPTPβ)
1 | COC(=O)N[C@@H](Cc1ccccc1)C(=O)N[C@@H](Cc1ccc(NS(=O)(=O)O)cc1)c1csc(-c2ccco2)n1 | 5000 nM | 
2 | Cc1nc([C@H](Cc2ccc(NS(=O)(=O)O)cc2)NC(=O)OC(C)(C)C)cs1 | 18900 nM | 33 nM
3 | CCOC(=O)Cc1csc([C@H](Cc2ccc(NS(=O)(=O)O)cc2)NC(=O)OC(C)(C)C)n1 | 50000 nM | 167 nM
4 | 4-((S)-2-(4-Ethylthiazol-2-yl)-2-{(S)-2-[2-(methoxycarbonylamino)-acetamido]-3-phenylpropanamido}ethyl)phenylsulfamic acid | 299 nM | 
5 | CC(C)(C)C(=O)N[C@@H](Cc1ccc(NS(=O)(=O)O)cc1)c1nc(-c2ccc3c(c2)OCCO3)cs1 [4-((S)-2-(4-(2,3-Dihydrobenzo[b][1,4]dioxin-6-yl)thiazol-2-yl)-2-pivalamidoethyl)phenylsulfamic acid] | 38300 nM | 138 nM
6 | COc1ccc(-c2csc([C@H](Cc3ccc(NS(=O)(=O)O)cc3)NC(=O)C(C)(C)C)n2)c(OC)c1 [4-((S)-2-(4-(2,4-Dimethoxyphenyl)thiazol-2-yl)-2-pivalamidoethyl)phenyl-sulfamic acid] | 43100 nM | 86 nM
7 | COc1cccc(-c2csc([C@H](Cc3ccc(NS(=O)(=O)O)cc3)NC(=O)C(C)(C)C)n2)c1 [4-((S)-2-(4-(3-Methoxyphenyl)thiazol-2-yl)-2-pivalamidoethyl)phenylsulfamic acid] | 40100 nM | 110 nM
8 | CC(C)(C)OC(=O)N[C@@H](Cc1ccc(NS(=O)(=O)O)cc1)c1nc(-c2cccc(C(F)(F)F)c2)cs1 [4-((S)-2-(tert-Butoxycarbonylamino)-2-(4-(3-(trifluoromethyl)phenyl)thiazol-2-yl)ethyl)-phenyl sulfamic acid] | 11800 nM | 253 nM
9 | CC(C)(C)OC(=O)N[C@@H](Cc1ccc(NS(=O)(=O)O)cc1)c1nc(-c2ccsc2)cs1 [4-((S)-2-(tert-Butoxycarbonylamino)-2-(4-(thiophen-3-yl)thiazol-2-yl)ethyl)phenyl sulfamic acid] | 14600 nM | 45 nM
10 | CCc1csc([C@H](Cc2ccc(NS(=O)(=O)O)cc2)NC(=O)[C@H](Cc2ccccc2)NC(C)=O)n1 [4-[(S)-2-((S)-2-Acetamido-3-phenylpropanamido)-2-(4-ethylthiazol-2-yl)ethyl]phenylsulfamic acid] | 1970 nM | 1 nM
11 | CC(=O)N[C@@H](Cc1ccccc1)C(=O)N[C@@H](Cc1ccc(NS(=O)(=O)O)cc1)c1nc(C(C)(C)C)cs1 [4-[(S)-2-((S)-2-Acetamido-3-phenylpropanamido)-2-(4-tert-butylthiazol-2-yl)ethyl]phenylsulfamic acid] | 1520 nM | 0.3 nM
12 | COC(=O)N[C@@H](Cc1ccccc1)C(=O)N[C@@H](Cc1ccc(NS(=O)(=O)O)cc1)c1csc(C2CC2)n1 [4-{(S)-2-(2-Cyclopropylthiazol-4-yl)-2-[(S)-2-(methoxy-carbonylamino)-3-phenylpropanamido]ethyl}phenylsulfamic acid] | 1350 nM | 0.2 nM
13 | COC(=O)N[C@@H](Cc1ccccc1)C(=O)N[C@@H](Cc1ccc(NS(=O)(=O)O)cc1)c1nc(C)c(C)s1 [4-{(S)-2-(4,5-Dimethylthiazol-2-yl)-2-[(S)-2-(methoxycarbonylamino)-3-phenyl-propanamido]ethyl}phenylsulfamic acid] | 310 nM | 1 nM
14 | CCOC(=O)c1csc([C@H](Cc2ccc(NS(=O)(=O)O)cc2)NC(=O)[C@H](Cc2ccccc2)NC(=O)OC)n1 [4-{(S)-2-(4-(Ethoxycarbonyl)thiazol-2-yl)-2-[(S)-2-(methoxy-carbonylamino)-3-phenylpropanamido]ethyl}phenylsulfamic acid] | 70 nM | 0.2 nM
15 | COC(=O)N[C@@H](Cc1ccccc1)C(=O)N[C@@H](Cc1ccc(NS(=O)(=O)O)cc1)c1nc(C2CCCCC2)cs1 [4-{(S)-2-(4-Cyclohexylthiazol-2-yl)-2-[(S)-2-(methoxycarbonylamino)-3-phenyl-propanamido]ethyl}phenylsulfamic acid] | 1780 nM | 
16 | CCc1nc([C@H](Cc2ccc(NS(=O)(=O)O)cc2)NC(=O)[C@H](Cc2ccccc2)NC(=O)OC)sc1-c1ccccc1 [4-{(S)-2-(4-Ethyl-5-phenylthiazol-2-yl)-2-[(S)-2-(methoxy-carbonylamino)-3-phenyl-propanamido]ethyl}phenylsulfamic acid] | 390 nM | 
17 | CC(C)(C)OC(=O)N[C@@H](Cc1ccccc1)C(=O)N[C@@H](Cc1ccc(NS(=O)(=O)O)cc1)c1csc(-c2ccccc2)n1 [4-{(S)-2-(S)-2-(tert-Butoxycarbonylamino)-3-phenylpropanamido-2-(2-phenylthiazol-4-yl)}phenylsulfamic acid] | 905 nM | 
18 | COC(=O)N[C@@H](Cc1ccccc1)C(=O)N[C@@H](Cc1ccc(NS(=O)(=O)O)cc1)c1csc(-c2sccc2Cl)n1 [4-{(S)-2-[2-(3-Chlorothiophen-2-yl)thiazol-4-yl]-2-[(S)-2-(methoxycarbonylamino)-3-phenylpropanamido]ethyl}phenylsulfamic acid] | 950 nM | 
19 | COC(=O)N[C@@H](Cc1ccccc1)C(=O)N[C@@H](Cc1ccc(NS(=O)(=O)O)cc1)c1nc(-c2ccc(Cl)s2)cs1 [4-{(S)-2-[4-(5-Chlorothiophen-2-yl)thiazol-2-yl]-2-[(S)-2-(methoxycarbonylamino)-3-phenylpropanamido]ethyl}phenyl-sulfamic acid] | 370 nM | 
20 | COC(=O)N[C@@H](Cc1ccccc1)C(=O)N[C@@H](Cc1ccc(NS(=O)(=O)O)cc1)c1nc(-c2ccccc2)cs1 [4-{(S)-2-[(S)-2-(Methoxycarbonylamino)-3-phenylpropanamido]-2-(4-phenylthiazol-2-yl)ethyl}phenylsulfamic acid] | 597 nM | 
21 | COC(=O)N[C@@H](Cc1ccccc1)C(=O)N[C@@H](Cc1ccc(NS(=O)(=O)O)cc1)c1csc(-c2sccc2C)n1 [4-{(S)-2-[(S)-2-(Methoxycarbonylamino)-3-phenylpropanamido]-2-[2-(3-methylthiophen-2-yl)thiazol-4-yl]ethyl}phenylsulfamic acid] | 1090 nM | 
22 | COC(=O)N[C@@H](Cc1ccccc1)C(=O)N[C@@H](Cc1ccc(NS(=O)(=O)O)cc1)c1csc(-c2cccs2)n1 [4-{(S)-2-[(S)-2-(Methoxycarbonylamino)-3-phenylpropanamido]-2-[2-(thiophen-2-yl)thiazol-4-yl]ethyl}phenylsulfamic acid] | 604 nM | 
23 | COC(=O)N[C@@H](Cc1ccccc1)C(=O)N[C@@H](Cc1ccc(NS(=O)(=O)O)cc1)c1nc(-c2cccs2)cs1 [4-{(S)-2-[(S)-2-(Methoxycarbonylamino)-3-phenylpropanamido]-2-[4-(thiophen-2-yl)thiazol-2-yl]ethyl}phenylsulfamic acid] | 990 nM | 
24 | COC(=O)N[C@@H](Cc1ccccc1)C(=O)N[C@@H](Cc1ccc(NS(=O)(=O)O)cc1)c1csc(-c2ccccc2)n1 [4-{(S)-2-[(S)-2-(Methoxycarbonylamino)-3-phenylpropionamido]-2-(2-phenylthiazole-4-yl)ethyl}phenylsulfamic acid] | 508 nM | 
25 | Cc1csc([C@H](Cc2ccc(NS(=O)(=O)O)cc2)NC(=O)C(C)(C)C)n1 [(S)-4-(2-(4-Methylthiazol-2-yl)-2-pivalamidoethyl)phenyl-sulfamic acid] | 50000 nM | 
